Test results: ChEMBL document CHEMBL1127278, “N-chloromethyl quinuclidinium derivatives: A new class of irreversible ligands for 5-HT3 receptors” (Bioorg Med Chem Lett, 1994)

Target: T1, Serotonin 3 (5-HT3) receptor (Rattus norvegicus, UniProt P35563+Q9JJ16)
T1 sequence (P35563 whole entry): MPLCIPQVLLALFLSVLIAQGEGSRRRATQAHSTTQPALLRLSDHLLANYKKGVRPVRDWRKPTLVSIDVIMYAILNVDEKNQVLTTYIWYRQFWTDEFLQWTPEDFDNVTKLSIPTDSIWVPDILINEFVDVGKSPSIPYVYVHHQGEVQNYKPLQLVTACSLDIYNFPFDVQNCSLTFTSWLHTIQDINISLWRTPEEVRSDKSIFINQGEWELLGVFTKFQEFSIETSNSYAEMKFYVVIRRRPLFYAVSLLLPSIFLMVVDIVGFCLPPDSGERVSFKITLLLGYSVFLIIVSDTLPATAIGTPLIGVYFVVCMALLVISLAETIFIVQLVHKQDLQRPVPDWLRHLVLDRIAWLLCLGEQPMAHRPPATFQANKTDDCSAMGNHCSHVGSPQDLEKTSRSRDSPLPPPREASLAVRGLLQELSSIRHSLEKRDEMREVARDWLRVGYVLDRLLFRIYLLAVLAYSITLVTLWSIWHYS
T1 sequence (Q9JJ16 whole entry): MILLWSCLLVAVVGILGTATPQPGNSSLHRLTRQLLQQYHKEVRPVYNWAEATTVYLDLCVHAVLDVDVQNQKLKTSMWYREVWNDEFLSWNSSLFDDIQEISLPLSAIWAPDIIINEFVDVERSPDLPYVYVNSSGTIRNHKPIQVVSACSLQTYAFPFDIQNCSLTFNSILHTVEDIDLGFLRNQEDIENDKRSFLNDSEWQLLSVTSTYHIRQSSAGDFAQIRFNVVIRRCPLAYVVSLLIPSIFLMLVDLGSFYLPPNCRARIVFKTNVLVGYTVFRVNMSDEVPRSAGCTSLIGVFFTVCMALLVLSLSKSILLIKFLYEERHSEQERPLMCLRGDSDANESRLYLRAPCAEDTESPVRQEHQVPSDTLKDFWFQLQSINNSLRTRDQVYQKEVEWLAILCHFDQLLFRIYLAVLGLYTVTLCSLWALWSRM
Experiment: Binding affinity to 5-hydroxytryptamine 3 receptor in rat entorhinal cortex using [3H]-BRL 43694 as radioligand

SMILES | Ki [nM]
Nc1ccc2c3c(cccc13)C(=O)N([C@@H]1C[N+]3(CCl)CCC1CC3)C2=O | 328
COc1cc(N)c(Cl)cc1C(=O)N[C@@H]1C[N+]2(CCl)CCC1CC2 | 14.8
Nc1ccc2c3c(cccc13)C(=O)N([C@H]1C[N+]3(CCl)CCC1CC3)C2=O | 0.35
COc1cc(N)c(Cl)cc1C(=O)N[C@H]1C[N+]2(CCl)CCC1CC2 | 20.1
